Here are results for one compound from patent publication US5185149A, “Methods for thrombolytic therapy” (Merck & Co., Inc., priority 1990, dated 1993).

The test system of the assay is blood clots (whole blood or plasma clot labelled with 125I-fibrinogen). Nature of the assay: in vitro clot lysis assay (release of 125I-fibrin-derived fragments, TPA-initiated lysis). The format is biochemical. The note with it: buffer pH 7.5. As to the method: In the assay, whole blood or plasma is charged with ^125 I-fibrinogen Thrombin is added to initiate clot formation and subsequently incubated for 2 hours to complete the cross-linking by endogenous Factor XIII. Factor XIIIa inhibitor is added prior to clot initiation or at various times during the 2-hour incubation. At the end of this period, the labelled clot is washed and lysis is initiated by exogenous tissue plasminogen activator (TPA). Exogenous plasminogen is employed in some experiments Endogenous plasminogen is used for others. Clot dissolution as a function of time is monitored by the release of solubilized ^125 I-fibrin-derived fragments.
In FIGS. 1 and 2, the open symbols indicate absence of cerulenin and the closed symbols indicate the presence of 200μM cerulenin at the time of clot formation. Clot lysis is conducted in buffer, pH 7.5; 5 ng/mL TPA represents approximate physiologic concentration. 50 to […] represents pharmacologic concentration range. […] FIG. 2 studies employed glu-plasminogen levels at approximately 10 percent physiologic level ([…]).

With `C/C=C/C/C=C/CCC(=O)[C@H]1O[C@H]1C(N)=O` [Cerulenin, 3-(1-oxo-4,7-nonadienyl)-oxiranecarboxamide], the “rates and extents of clot lysis” value (200μM inhibitor at clot formation, no exogenous plasminogen, TPA at physiological and pharmacological levels, FIG. 1) is “enhanced rates and extents of lysis”. Under “200μM inhibitor, 12μg/mL exogenous glu-plasminogen, TPA, FIG. 2”, the “rate of TPA catalyzed clot lysis” value is “lysis rates were further enhanced”.
